From patent US5686454A, “Camphorcarbonyl” (Merck & Co., Inc., priority 1996, dated 1997)

Target: T1, uterine OT receptors (Rattus norvegicus, UniProt P70536)
T1 construct: crude membrane preparation of uteri; from tissue; host or cells: uterus of DES-treated rats, crude membranes
T1 sequence (P70536 1-388): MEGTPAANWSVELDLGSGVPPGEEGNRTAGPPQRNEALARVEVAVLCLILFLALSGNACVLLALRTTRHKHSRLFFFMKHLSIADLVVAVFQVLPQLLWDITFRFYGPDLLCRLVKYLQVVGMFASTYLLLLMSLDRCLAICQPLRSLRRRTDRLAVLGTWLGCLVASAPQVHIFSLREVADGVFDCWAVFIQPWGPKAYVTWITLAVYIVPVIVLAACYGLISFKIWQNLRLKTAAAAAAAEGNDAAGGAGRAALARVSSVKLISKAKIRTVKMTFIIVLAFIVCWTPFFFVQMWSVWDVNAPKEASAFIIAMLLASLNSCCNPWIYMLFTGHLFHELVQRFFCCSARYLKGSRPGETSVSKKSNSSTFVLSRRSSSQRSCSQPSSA
Test: Radioligand binding: competition of [^3 H]oxytocin binding to rat uterine membranes
Details: 1 nM [^3 H]OT, rat uterus membranes, 60 minutes, 22° C., pH 7.4; read-out: IC50
Excerpt: RADIOGLIGAND BINDING ASSAYS
The high affinity binding of [^3 H]

| IC50 | Structure (SMILES) |
| --- | --- |
| 28 nM | CCOC(=O)CN1CCC[C@H]1C(=O)NCC(C)C1(O)CC2CCC1(CS(=O)(=O)N1CCN(c3ccccc3C)CC1)C2(C)C (stereo partly drawn) [Example 88, 1-((7,7-Dimethyl-2-exo-hydroxy-2-endo-2-(1-(1-N -(ethoxycarboxymethyl)-prolyl)amino)propyl-bicyclo-(2.2.1)heptan-1-yl)methanesulfonyl)-4-(2-methylphenyl)piperazine] |
| 30 nM | Cc1ccccc1N1CCN(S(=O)(=O)CC23CCC(CC2(O)C(C)CNC(=O)C2CCCNC2)C3(C)C)CC1 (stereo not drawn) [Example 83, 1-((7,7-Dimethyl-2-exo-hydroxy-2-endo-2-(1-(3-piperidinylcarbonyl)amino)propyl-bicyclo(2.2.1)heptan-1-yl)methanesulfonyl)-4-(2-methylphenyl)piperazine] |
| 100 nM | CCOC(=O)CCCN1CCC[C@H]1C(=O)NCC(C)[C@@]1(O)C[C@H]2CC[C@]1(CS(=O)(=O)N1CCN(c3ccccc3C)CC1)C2(C)C (stereo partly drawn) [Example 41, 1-((7,7-Dimethyl-2-exo-hydroxy-2-endo-2-(1-(1-N-(ethoxycarbonylpropyl)prolyl)amino)propyl-bicyclo(2.2.1)heptan-1-yl)methanesulfonyl)-4-(2-methylphenyl)piperazine] |
| 150 nM | Cc1ccccc1N1CCN(C(=O)C2(C)C(=O)C3(C)CCC2C3(C)C)CC1 (centres unmarked) [Example 3, 1-(2-methylphenyl)-4-[(2,4,7,7-tetramethyl-3-oxobicyclo[2.2.1]hept-2-yl)carbonyl]-piperazine] |
| 260 nM | COC(=O)C1CC2CCC1(CS(=O)(=O)N1CCN(c3ccccc3C)CC1)C2(C)C (stereo not drawn) [Example 59, 1-((7,7-Dimethyl-2-endo-methoxycarbonyl-bicyclo-(2.2.1)heptan-1-yl)methanesulfonyl)-4-(2-methyl-phenyl)piperazine] |

Continued, molecule first:

| Structure (SMILES) | IC50 |
| --- | --- |
| Cc1ccccc1N1CCN(C(=O)C2C3CCC(C)(C2NC(=O)C(CCS(C)(=O)=O)NC(=O)OC(C)(C)C)C3(C)C)CC1 (stereo not drawn) [Example 9, 1-(2-methylphenyl)-4-[(4,7,7-trimethyl-3-exo-(4-methylsulfonyl-2-t-butoxycarbonylamino)butanoylaminobicyclo[2.2.1]hept-2-endo-yl)carbonyl]-piperazine] | 6.5 nM |
| Cc1ccccc1N1CCN(C(=O)C2C3CCC(C)(C2NC(=O)C(O)CO)C3(C)C)CC1 (centres unmarked) [Example 18, 1-(2-methylphenyl)-4-[(4,7,7-trimethyl-3-(2,3-dihydroxy)propionylaminobicyclo[2.2.1]hept-2-yl)carbonyl]-piperazine] | 120 nM |
| Cc1ccccc1N1CCN(S(=O)(=O)C[C@]23CC[C@H](C[C@@H]2NC(=O)C(C)c2c[nH]cn2)C3(C)C)CC1 (stereo partly drawn) [Example 80, 1-((7,7-Dimethyl-2-endo-(2-(4-imidazolyl)propanoyl)-amino-bicyclo(2.2.1)heptan-1-yl)methanesulfonyl)-4-(2-methylphenyl)piperazine] | 12 nM |
| Cc1ccccc1N1CCN(C(=O)C2C3CCC(C)(C2NC(=O)C(C)(C)O)C3(C)C)CC1 (centres unmarked) [Example 17] | 16 nM |
| CC(=O)NC1C(C(=O)N2CCN(c3ccccc3C)CC2)C2CCC1(C)C2(C)C (centres unmarked) [Example 14, 1-(2-methylphenyl)-4-[(4,7,7-trimethyl-3-acetylaminobicyclo[2.2.1]hept-2-yl)carbonyl]-piperazine] | 55 nM |
| Cc1ccccc1N1CCN(S(=O)(=O)CC23CCC(CC2(O)C(C)CNC(=O)[C@@H]2CCCN2CCC(=O)O)C3(C)C)CC1 (stereo partly drawn) [Example 82, 1-((7,7-Dimethyl-2-exo-hydroxy-2-endo-2-(1-(1-N-(carboxyethyl)prolyl)amino)propyl-bicyclo(2.2.1)-heptan-1-yl)methanesulfonyl)-4-(2-methylphenyl)piperazine] | 15 nM |
| Cc1ccccc1N1CCN(C(=O)C2C(=NO)C3(C)CCC2C3(C)C)CC1 (stereo not drawn) [Example 6, 1-(2-methylphenyl)-4-[(4,7,7-trimethyl-3-hydroxyimino-bicyclo[2.2.1]-hept-2-endo-yl)carbonyl]-piperazine] | 82 nM |
| COC(=O)CCN(CCC(=O)OC)CC(C)[C@@]1(O)C[C@H]2CC[C@]1(CS(=O)(=O)N1CCN(c3ccccc3C)CC1)C2(C)C (stereo partly drawn) [Example 47, 1-((7,7-dimethyl-2-exo-hydroxy-2-endo-2-(1-bis-(2-methoxycarbonylethyl)amino)propyl-bicyclo(2.2.1)heptan-1-yl)methanesulfonyl)-4-(2-methylphenyl)piperazine] | 54 nM |
| Cc1ccccc1N1CCN(S(=O)(=O)CC23CCC(CC2N(C)C(=O)[C@H](CCS(C)(=O)=O)N(C)C)C3(C)C)CC1 (stereo partly drawn) [Example 78, 1-((7,7-Dimethyl-2-endo-methyl(2S-dimethylamino-4-(methylsulfonyl)butanoyl)amino-bicyclo(2.2.1)heptan-1-yl)methanesulfonyl)-4-(2-methylphenyl)-piperazine] | 110 nM |
| Cc1ccccc1N1CCN(S(=O)(=O)CC23CCC(CC2(O)C(C)CNC(=O)[C@@H]2CCCN2CC(=O)O)C3(C)C)CC1 (some centres unmarked) [Example 89] | 14 nM |

Same assay, conditions: read-out: % inhibition at 100 nM

| inhibition at 0.1 µM | Structure (SMILES) |
| --- | --- |
| 37% | COC(=O)C1CC(=O)N(CC(C)C2(O)CC3CCC2(CS(=O)(=O)N2CCN(c4ccccc4C)CC2)C3(C)C)C1 (stereo not drawn) [Example 62, 1-((7,7-dimethyl-2-exo-hydroxy-2-endo-2-(1-(3-methoxycarbonyl)-2-pyrrolidinon-1-yl)propylbicyclo-(2.2.1)heptan-1-yl)methanesulfonyl)-4-(2-methylphenyl)piperazine] |
| 66% | Cc1ccccc1N1CCN(S(=O)(=O)CC23CCC(CC2(O)C(C)CNC(=O)C2CCN(CCC(=O)O)CC2)C3(C)C)CC1 (stereo not drawn) [Example 92, 1-((7,7-Dimethyl-2-exo-hydroxy-2-endo-2-(1-(4-(1-carboxyethyl)piperidinylcarbonyl)amino)propyl-bicyclo-(2.2.1)heptan-1-yl)methanesulfonyl)-4-(2-methylphenyl)piperazine] |
| 66% | Cc1ccccc1N1CCN(S(=O)(=O)CC23CCC(CC2(O)C(C)CNC(=O)C2CCCN(CCC(=O)O)C2)C3(C)C)CC1 (centres unmarked) [Example 85] |

Same assay, conditions: read-out: % inhibition at 110 nM

| inhibition at […] | Structure (SMILES) |
| --- | --- |
| 66% | Cc1ccccc1N1CCN(S(=O)(=O)CC23CCC(CC2(O)C(C)CNC(=O)C2CCCN(CC(=O)O)C2)C3(C)C)CC1 (stereo not drawn) [Example 87, 1-((7,7-Dimethyl-2-exo-hydroxy-2-endo-2-(1-(3-(1-carboxymethyl)piperidinylcarbonyl)amino)-propylbicyclo(2.2.1)heptan-1-yl)methanesulfonyl)-4-(2-methylphenyl)piperazine] |

Same assay, conditions: read-out: % inhibition at 1000 nM

| inhibition at 1 µM | Structure (SMILES) |
| --- | --- |
| 37% | Cc1ccccc1N1CCN(S(=O)(=O)CC23CCC(CC2=O)C3(C)C)C(C)C1=O (centres unmarked) [Example 67, 1-((7,7-Dimethyl-2-oxo-bicyclo(2.2.1)heptan-1-yl)-methanesulfonyl)-4-(2-methylphenyl)-2-methyl-3-piperazinone] |
| 38% | COC(=O)C1=C[C@H]2CC[C@]1(CS(=O)(=O)N1CCN(c3ccccc3C)CC1)C2(C)C [Example 56, 1-((7,7-Dimethyl-2-methoxycarbonyl-bicyclo(2.2.1)hept-2-en-1-yl)methanesulfonyl)-4-(2-methylphenyl)-piperazine] |
| 27% | Cc1ccccc1N1CCN(C(=O)C2(CC#N)C(=O)C3(C)CCC2C3(C)C)CC1 (centres unmarked) [Example 5] |
| 64% | Cc1ccccc1N1CCN(S(=O)(=O)C[C@]23CC[C@H](CC2=CCN=[N+]=[N-])C3(C)C)CC1 [Example 51, 1-((7,7-dimethyl-2-(2-azido)ethylidine-bicyclo-(2.2.1)heptan-1-yl)methanesulfonyl)-4-(2-methyl-phenyl)piperazine] |
